Measurements taken from publication PMC11087051, “Large-scale deorphanization of Nematostella vectensis neuropeptide G protein-coupled receptors supports the independent expansion of bilaterian and cnidarian peptidergic systems” (eLife, 2024).
Residues, ends and D or L forms follow the SMILES beside them. No end group written: not given here.

Assay: Maximal solubility of the synthetic peptides in water and in DMSO (sheet Peptide_mixes)
Format: physicochemical
Settings: for max solve (DMSO): in DMSO, number in brackets in the cell; for max solve water: in water, number before the bracket in the cell
Source text: Supplement elife-90674-supp3.xlsx, sheet "Peptide_mixes"

Row | Compound | max solve (DMSO) | max solve water
1 | SPWSYSLRP-NH2 [LRPa2] | 10 (10) mg/ml | 10 (10) mg/ml
2 | GPPQGLRW-NH2 [LRWa3] | 5 (5) mg/ml | 5 (5) mg/ml
3 | CC(C)C[C@@H]1NC(=O)CNC(=O)[C@@H]2CCCN2C(=O)[C@@H]2CCCN2C(=O)[C@@H](NC(=O)[C@@H]2CCC(=O)N2)CSSC[C@@H](C(=O)O)NC(=O)CNC(=O)[C@H](Cc2c[nH]c3ccccc23)NC1=O [GLWGcc] (HELM PEPTIDE1{[Glp].C.P.P.G.L.W.G.C}$PEPTIDE1,PEPTIDE1,2:R3-9:R3$$$V2.0) | 10 mg/mL | 2 mg/mL
4 | CC(C)C[C@H](NC(=O)[C@H](Cc1ccc(O)cc1)NC(=O)[C@@H]1CCC(=O)N1)C(=O)N[C@@H](CC(=O)O)C(=O)N1CCC[C@H]1C(=O)N[C@@H](CCCNC(=N)N)C(=O)N1CCC[C@H]1C(N)=O [RHa5] (HELM PEPTIDE1{[Glp].Y.L.D.P.R.P.[am]}$$$$V2.0) | 15 mg/mL | 10 mg/mL
5 | APPGNGEGEAGFIPWFS-NH2 [WFSa] | 2 mg/mL | 0 mg/mL
6 | GYYRDNIQETRQYLDPRP-NH2 [RHa4] | 10 mg/mL | 5 mg/mL
7 | TPPQW [QW1] | 10 mg/mL | 2 mg/mL
8 | CC(C)C[C@H](NC(=O)[C@H](Cc1c[nH]cn1)NC(=O)[C@H](CO)NC(=O)[C@H](CC(C)C)NC(=O)[C@@H]1CCCN1C(=O)[C@@H]1CCCN1C(=O)[C@@H]1CCC(=O)N1)C(=O)N[C@@H](CO)C(N)=O [HLSa] (HELM PEPTIDE1{[Glp].P.P.L.S.H.L.S.[am]}$$$$V2.0) | 5 mg/mL | 0 mg/mL
9 | CC(C)C[C@H](NC(=O)CNC(=O)CNC(=O)[C@@H]1CCC(=O)N1)C(=O)N[C@@H](CCCNC(=N)N)C(=O)N[C@@H](Cc1c[nH]c2ccccc12)C(N)=O [LRWa2] (HELM PEPTIDE1{[Glp].G.G.L.R.W.[am]}$$$$V2.0) | 10 mg/mL | 5 mg/mL
10 | CSCC[C@H](NC(=O)[C@H](CC(N)=O)NC(=O)[C@@H]1CCCN1C(=O)[C@H](CCSC)NC(=O)[C@@H]1CCC(=O)N1)C(=O)N[C@H](C(=O)N1CCC[C@H]1C(=O)N[C@@H](Cc1ccccc1)C(=O)N[C@@H](Cc1c[nH]cn1)C(N)=O)C(C)C [PFHa] (HELM PEPTIDE1{[Glp].M.P.N.M.V.P.F.H.[am]}$$$$V2.0) | 10 mg/mL | 0 mg/mL
11 | CC[C@H](C)[C@H](NC(=O)[C@@H]1CCCN1C(=O)[C@@H](NC(=O)[C@H](CCCNC(=N)N)NC(=O)[C@H](Cc1ccccc1)NC(=O)[C@@H]1CCCN1C(=O)[C@@H]1CCCN1C(=O)[C@@H]1CCC(=O)N1)[C@@H](C)CC)C(N)=O [pIPIa] (HELM PEPTIDE1{[Glp].P.P.F.R.I.P.I.[am]}$$$$V2.0) | 10 mg/mL | 0 mg/mL
12 | CSCC[C@H](NC(=O)[C@H](CC(C)C)NC(=O)CNC(=O)[C@@H]1CCC(=O)N1)C(=O)N[C@@H](Cc1ccccc1)C(=O)N[C@@H](CCCNC(=N)N)C(=O)N1CCC[C@H]1C(N)=O [FRPa2] (HELM PEPTIDE1{[Glp].G.L.M.F.R.P.[am]}$$$$V2.0) | 10 mg/mL | 5 mg/mL
13 | N=C(N)NCCC[C@H](NC(=O)CNC(=O)[C@@H]1CCC(=O)N1)C(=O)N[C@@H](Cc1ccccc1)C(N)=O [QGRFa] (HELM PEPTIDE1{[Glp].G.R.F.[am]}$$$$V2.0) | 10 mg/mL | 5 mg/mL
14 | SPKPPGLW-NH2 [GLWa5] | 10 (10) mg/ml | 10 (10) mg/ml
15 | DSSPPQW [QW2] | 10 mg/mL | 5 mg/mL
16 | GPPPIYLPVRP-NH2 [RHa3] | 10 (10) mg/ml | 10 (10) mg/ml

Row | Compound | max solve (DMSO) | max solve water
17 | RSNRVVIHTGANPTMAPLRIPF-NH2 [IPFa] | 10 mg/mL | 5 mg/mL
18 | SPWSCSLRP-NH2 [LRPa1] | 10 (10) mg/ml | 10 (10) mg/ml
19 | CC(C)[C@H](NC(=O)[C@H](CCCNC(=N)N)NC(=O)[C@H](Cc1ccc(O)cc1)NC(=O)[C@@H](N)Cc1ccccc1)C(N)=O [FYRVa] (H-FYRV-NH2) | 10 mg/mL | 2 mg/mL
20 | WPPRP-NH2 [FRPa1] | 10 (10) mg/ml | 10 (10) mg/ml
21 | APRGGRSLLDLLAAPRG-NH2 [PRGa1] | 10 (10) mg/ml | 10 (10) mg/ml
22 | FPPGFHRP-NH2 [HRPa] | 10 mg/mL | 5 mg/mL
23 | NPPIDLGPAYFHIR-NH2 [HIRa5] | 10 mg/mL | 5 mg/mL
24 | CC[C@H](C)[C@H](NC(=O)[C@H](Cc1c[nH]cn1)NC(=O)[C@H](Cc1ccccc1)NC(=O)[C@H](Cc1ccc(O)cc1)NC(=O)[C@H](C)NC(=O)[C@@H]1CCCN1C(=O)CNC(=O)[C@H](CC(C)C)NC(=O)[C@H](CC(=O)O)NC(=O)[C@H](CC(C)C)NC(=O)[C@@H]1CCCN1C(=O)[C@@H]1CCCN1C(=O)[C@@H]1CCC(=O)N1)C(=O)N[C@@H](CCCNC(=N)N)C(N)=O [HIRa4] (HELM PEPTIDE1{[Glp].P.P.L.D.L.G.P.A.Y.F.H.I.R.[am]}$$$$V2.0) | 10 mg/mL | 5 mg/mL
25 | C[C@H](NC(=O)[C@H](CCCCN)NC(=O)[C@H](Cc1ccccc1)NC(=O)[C@@H](N)Cc1ccccc1)C(N)=O [FFKAa] (H-FFKA-NH2) | 10 (10) mg/ml | 10 (10) mg/ml
26 | YPPFLELGQPSYFHIR-NH2 [HIRa2] | 10 mg/mL | 5 mg/mL
27 | SPPQWKLDSSPPQW [QW3] | 10 mg/mL | 5 mg/mL
28 | KGIKQEEIQPGNMKVWSDPF [PNX20] | 10 mg/mL | 5 mg/mL
29 | GPPGLW-NH2 [GLWa3] | 10 mg/mL | 5 mg/mL
30 | CC(C)C[C@H](NC(=O)[C@H](CCCNC(=N)N)NC(=O)[C@@H](NC(=O)[C@H](CC(N)=O)NC(=O)[C@H](C)NC(=O)[C@H](CCCCN)NC(=O)[C@H](CS)NC(=O)[C@H](CC(C)C)NC(=O)[C@H](Cc1c[nH]c2ccccc12)NC(=O)[C@H](CC(C)C)NC(=O)CNC(=O)[C@@H]1CCCN1C(=O)[C@@H]1CCCN1C(=O)[C@H](CS)NC(=O)[C@H](Cc1c[nH]cn1)NC(=O)CNC(=O)[C@H](CC(N)=O)NC(=O)[C@@H]1CCC(=O)N1)[C@@H](C)O)C(=O)O [GLWL] (HELM PEPTIDE1{[Glp].N.G.H.C.P.P.G.L.W.L.C.K.A.N.T.R.L}$$$$V2.0) | 10 mg/mL | 5 mg/mL
31 | NPPQPPFRIPI-NH2 [IPIa] | 10 mg/mL | 5 mg/mL
32 | CSCC[C@H](NC(=O)[C@H](C)NC(=O)[C@@H]1CCC(=O)N1)C(=O)N[C@@H](CCC(N)=O)C(=O)N[C@@H](Cc1c[nH]c2ccccc12)C(=O)NCC(=O)N[C@@H](Cc1c[nH]cn1)C(=O)N[C@@H](CCCCN)C(=O)NCC(=O)N[C@@H](Cc1c[nH]c2ccccc12)C(=O)N[C@@H](C)C(=O)O [GWA1] (HELM PEPTIDE1{[Glp].A.M.Q.W.G.H.K.G.W.A}$$$$V2.0) | 10 mg/mL | 0 mg/mL
